≈ marks a conversion by molar mass, not a printed value. Bounds are passed on as bounds.

As usually defined, the MIC is the lowest concentration that inhibits growth of the organism.

The subject of data set [1] is gram positive organisms. As to the kind of experiment: activity against gram positive organisms. The class given is cell-based.
Data set [2] can be described thus: solubility. In kind it is physicochemical.
Data set [3] relates to Acinetobacter calcoaceticus. Description: MIC by agar dilution technique. The class given is cell-based. Particulars: SC8333, SC No. 8333, 10^4 CFU, 37° C., 18 hours. As to the method:
(§1) The minimum inhibitory concentration (MIC) of aerocavin was determined by an agar dilution technique. The test organisms were prepared from frozen stocks and diluted to give a final level of 10^7 CFU/ml (CFU is colony forming units). Aerocavin was dissolved in the appropriate diluent at a concentration of 1,000 μg/ml. Two fold dilutions were made in Yeast Beef Broth (Difco), resulting in a range from 1,000 μg/ml to 0.5 μg/ml. A 1.5 ml sample of each dilution was placed into individual petri dishes to which 13.5 ml of K-10 agar* was added. The final drug concentration in the agar ranged from 100 μg/ml to 0.05 μg/ml. Organism growth control plates containing agar only were prepared and inoculated before and after the test plates. The organisms were applied to the surface of each plate with the Denley Multipoint Inoculator (which delivers approximately 0.001 ml of each organism) resulting in a final inoculum level of 10^4 CFU on the agar surface. |*K-10 agar The plates were incubated at 37° C. for 18 hours and the MIC's then determined. The MIC is the lowest concentration of compound inhibiting growth of the organism.
On the technique in general: In agar dilution the substance is mixed into plates at graded concentrations.

Data set [4] deals with Staphylococcus epidermidis. As to the kind of experiment: MIC by agar dilution technique. The class given is cell-based. Particulars: 37° C., 18 hours. How it is done: as §1
Data set [5] has as its system Escherichia coli. Description: MIC by agar dilution technique. The class given is cell-based. Particulars: 37° C., 18 hours. How it is done:
as §1, with “surface.” for “surface. |*K-10 agar The plates were incubated at 37° C. for 18 hours and the MIC's then determined. The MIC is the lowest concentration of compound inhibiting growth of the organism.”
(§2) The plates were incubated at 37° C. for 18 hours and the MIC's then determined. The MIC is the lowest concentration of compound inhibiting growth of the organism.
(§3) Using the methodology described for the determination of the biological activity of aerocavin, the biological activity of aerocyanidin was determined.

For data set [6], the system named is Pseudomonas aeruginosa. Description: MIC by agar dilution technique. The class given is cell-based. Particulars: 37° C., 18 hours. As to the method:
as §1, with “surface.” for “surface. |*K-10 agar The plates were incubated at 37° C. for 18 hours and the MIC's then determined. The MIC is the lowest concentration of compound inhibiting growth of the organism.”
as §2, §3

Data set [7] deals with Staphylococcus aureus. Description: MIC by agar dilution technique. The class given is cell-based. The settings on record: 37° C., 18 hours. How it is done:
as §1, with “surface.” for “surface. |*K-10 agar The plates were incubated at 37° C. for 18 hours and the MIC's then determined. The MIC is the lowest concentration of compound inhibiting growth of the organism.”
as §2, §3

Data set [8] can be described thus: stability on storage. The settings on record: solid state, compared with ethyl acetate solution at 4° C. The class given is physicochemical.
The test system of data set [9] is Enterobacter cloacae. Description: MIC by agar dilution technique. In kind it is cell-based. The settings on record: SC8236, SC No. 8236, 10^4 CFU, 37° C., 18 hours. How it is done: as §1, with “surface.” for “surface. |*K-10 agar The plates were incubated at 37° C. for 18 hours and the MIC's then determined. The MIC is the lowest concentration of compound inhibiting growth of the organism.”
as §2, §3

The test system of data set [10] is Streptococcus agalactiae. As to the kind of experiment: MIC by agar dilution technique. Particulars: SC9287, SC No. 9287, 10^4 CFU, 37° C., 18 hours. The class given is cell-based. As to the method: as §1, with “surface.” for “surface. |*K-10 agar The plates were incubated at 37° C. for 18 hours and the MIC's then determined. The MIC is the lowest concentration of compound inhibiting growth of the organism.”
as §2, §3

For data set [11], the system named is Micrococcus luteus. Description: MIC by agar dilution technique. In kind it is cell-based. Particulars: SC2495, SC No. 2495, 10^4 CFU, 37° C., 18 hours. How it is done:
as §1, with “surface.” for “surface. |*K-10 agar The plates were incubated at 37° C. for 18 hours and the MIC's then determined. The MIC is the lowest concentration of compound inhibiting growth of the organism.”
as §2, §3

Data set [12] deals with Klebsiella pneumoniae. Description: MIC by agar dilution technique. The class given is cell-based. The settings on record: SC9527, SC No. 9527, 10^4 CFU, 37° C., 18 hours. How it is done:
as §1, with “surface.” for “surface. |*K-10 agar The plates were incubated at 37° C. for 18 hours and the MIC's then determined. The MIC is the lowest concentration of compound inhibiting growth of the organism.”
as §2, §3

Data set [13] concerns Streptococcus faecalis. As to the kind of experiment: MIC by agar dilution technique. The class given is cell-based. Particulars: Enterococcus faecalis, SC9011; SC No. 9011; 10^4 CFU, 37° C., 18 hours. How it is done: as §1, with “surface.” for “surface. |*K-10 agar The plates were incubated at 37° C. for 18 hours and the MIC's then determined. The MIC is the lowest concentration of compound inhibiting growth of the organism.”
as §2, §3

Data set [14] relates to Salmonella typhosa. As to the kind of experiment: MIC by agar dilution technique. The class given is cell-based. Particulars: Salmonella enterica, SC1195 / TYPHOSA, 18 h. As to the method:
as §1, with “surface.” for “surface. |*K-10 agar The plates were incubated at 37° C. for 18 hours and the MIC's then determined. The MIC is the lowest concentration of compound inhibiting growth of the organism.”
as §2, §3

The test system of data set [15] is Shigella sonnei. Description: MIC by agar dilution technique. In kind it is cell-based. Particulars: SC8449, SC No. 8449, 10^4 CFU, 37° C., 18 hours. As to the method: as §1, with “surface.” for “surface. |*K-10 agar The plates were incubated at 37° C. for 18 hours and the MIC's then determined. The MIC is the lowest concentration of compound inhibiting growth of the organism.”
as §2, §3

The subject of data set [16] is Proteus mirabilis. As to the kind of experiment: MIC by agar dilution technique. Particulars: SC3855, SC No. 3855, 10^4 CFU, 37° C., 18 hours. In kind it is cell-based. As to the method:
as §1, with “surface.” for “surface. |*K-10 agar The plates were incubated at 37° C. for 18 hours and the MIC's then determined. The MIC is the lowest concentration of compound inhibiting growth of the organism.”
as §2, §3

Data set [17] concerns Klebsiella aerogenes. As to the kind of experiment: MIC by agar dilution technique. The settings on record: SC10440, SC No. 10440, 10^4 CFU, 37° C., 18 hours. The class given is cell-based. How it is done: as §1, with “surface.” for “surface. |*K-10 agar The plates were incubated at 37° C. for 18 hours and the MIC's then determined. The MIC is the lowest concentration of compound inhibiting growth of the organism.”
as §2, §3

As for `CCCCCCCCC[C@@H](O)C[C@H]1C[C@H](O)C/C(C)=C/C/C=C/C/C(CC(=O)O)=C\C(=O)O1` (relative stereo) [aerocavin, [3E,6E,9E,12α,14β(R*)]-12-hydroxy-14-(2-hydroxyundecyl)-10-methyl-2-oxooxacyclotetradeca-3,6,9-triene-4-acetic acid], the “activity against gram positive organisms” value in data set [1] was “has activity against gram positive organisms”. Also, the solubility entry in data set [2] (in heptane) was “less soluble”; in [2] (in methanol, acetone, ethyl acetate), “substantially soluble”; in data set [2] (in water), “insoluble”. Also, the minimal inhibitory concentration (MIC) in data set [3] is 12.5 µg/mL (≈ 26.9 µM); in data set [4] (SC9052, SC No. 9052, 10^4 CFU) it was 6.3 µg/mL (≈ 13.6 µM); in data set [4] (SC10547, SC No. 10547 (Penicillin^R), 10^4 CFU) it was 3.1 µg/mL (≈ 6.67 µM); in data set [5] (SC8294, SC No. 8294, 10^4 CFU) it was 100 µg/mL (≈ 215 µM); in [5] (SC10857, SC No. 10857, 10^4 CFU) it was 12.5 µg/mL (≈ 26.9 µM); in data set [6] (SC9545, SC No. 9545, 10^4 CFU), 25 µg/mL (≈ 53.8 µM). Further, the MIC in [7] (SC1276, SC No. 1276, 10^4 CFU) came to 6.3 µg/mL (≈ 13.6 µM); in data set [7] (SC2399, SC No. 2399, 10^4 CFU), 6.3 µg/mL (≈ 13.6 µM); in data set [7] (SC9593, SC No. 9593 (Penicillin^R), 10^4 CFU), 6.3 µg/mL (≈ 13.6 µM); in data set [7] (SC10016, SC No. 10016 (Tetracycline^R), 10^4 CFU) it was 3.1 µg/mL (≈ 6.67 µM); in data set [7] (SC10820, SC No. 10820 (Erythromycin^R), 10^4 CFU), 3.1 µg/mL (≈ 6.67 µM).
Consider `[C-]#[N+][C@]1(C)O[C@@H]1[C@H](O)CCCCCCCCCC(=O)O` (relative stereo) [aerocyanidin, [2α(R*),3α]-κ-hydroxy-3-isocyano-3-methyloxiraneundecanoic acid], for which the “activity against gram positive organisms” value in data set [1] is recorded as “has activity against gram positive organisms”. In addition, the stability result in data set [8] was “less stable in the solid state”. Besides, the MIC in [9] was 50 µg/mL (≈ 176 µM); in data set [10], < 0.05 µg/mL; in [11] it was 0.4 µg/mL (≈ 1.41 µM); in [12] it was > 50 µg/mL; in data set [13] it was 0.2 µg/mL (≈ 0.706 µM); in [14], 25 µg/mL (≈ 88.2 µM). The MIC is 25 µg/mL (≈ 88.2 µM) in [15]; 1.6 µg/mL (≈ 5.65 µM) in data set [16]; > 50 µg/mL in data set [5] (SC8294, SC No. 8294, 10^4 CFU); 25 µg/mL (≈ 88.2 µM) in data set [5] (SC10896, SC No. 10896, 10^4 CFU); 1.6 µg/mL (≈ 5.65 µM) in data set [5] (SC10909, SC No. 10909, 10^4 CFU); > 50 µg/mL in [6] (SC8329, SC No. 8329, 10^4 CFU). Moreover, the MIC is < 0.05 µg/mL in data set [7] (SC1276, SC No. 1276, 10^4 CFU); < 0.05 µg/mL in data set [7] (SC2399, SC No. 2399, 10^4 CFU); < 0.05 µg/mL in data set [7] (SC2400, SC No. 2400, 10^4 CFU); > 50 µg/mL in data set [17].

The values are drawn from patent US4745202A, “Aerocyanidin-antibiotic” (E. R. Squibb & Sons, Inc., priority 1987, dated 1988).
